Laboratory results as given in article PMC6611794, “Development of a high-throughput strategy for discovery of potent analogues of antibiotic lysocin E” (Nature Communications, 2019).
Read-outs that look alike come from different tables or passages of the source. Where a SMILES comes first, the peptide text is derived from it. Bridges are numbered along the chain shown (N, C = ends). [ ]: non-standard residue; d: D form. The star is where a group is joined. Hexanoyl(3R-OH,5-Me) = CC(C)C[C@@H](O)CC(=O)*; dNMeF = CN[C@H](Cc1ccccc1)C(=O)O

Key:
[1] = On-bead menaquinone complexation assay (fluorescence of 2H); assay type: binding; conditions: single library bead (hit beads >1000 a.u.); average of three readings
Method: Next, the feasibility of the on-bead complexation assay was assessed using bead-linked lysocin E 30 and MK-4 (2). Our initial assay based on the finding that 1 and 2 form a red precipitate upon complexation (Supplementary Fig. 2) was not robust, because the magnitude of the red color was not proportional to the amount of captured 2 (Fig. 2b, c). We therefore developed a fluorescence-based method for quantifying 2 by reducing its naphthoquinone moiety to fluorescent hydroquinone 2H. One bead of 30 was incubated with 2 in MeOH, washed by MeOH in a microplate well, and then the bead-bound 2 was eluted under more forcing hydrophobic conditions (n-BuOH at 50 °C). The eluate containing 2 was treated with NaBH4 in n-BuOH to produce 2H[46]. The fluorescence intensity of 2H was evaluated to determine the quantity of 2 bound to one bead of 30. The method was found with a small margin of error (1026 ± 64 a.u.), indicating its high accuracy (Fig. 2a and Supplementary Fig. 3). Importantly, the structure of 1 remained intact during the complexation assay as judged by UHPLC and mass analyses.
General procedures for menaquinone complexation assay. To the bead-linked lysocin E analogues in LibraTube was added a solution of menaquinone-4 (2) in MeOH (10 mM, 1.0 mL/1000 beads). The mixture was incubated at room temperature for 12 h. A suspension of the beads in MeOH (200 beads/200 µL) was transferred to a 2.0 mL microtube.
Each bead in the microtube was transferred to each well of a 96-well filtration plate (278011, Thermo Fisher Scientific, 1 bead/well) with the solution of 2 (20 µL/bead) using a micropipette. To each well was added MeOH (400 µL), and the beads was filtered by gravity flow (× 3). The beads in the plate were dried under vacuum for 0.5–1 h. The dried beads were transferred to a 96-well PCR plate (652270, Greiner bio-one, 1 bead/well) with MeOH (20 µL/well) using a micropipette. The solution was removed under a stream of Ar at 40 °C to give the 2-bound bead-linked peptides.
To the 2-bound bead-linked peptides in the plate was added n-BuOH (30 µL/well) at room temperature .
The suspension was incubated at 50 °C for 1 h. The resultant mixture in the plate was centrifuged at 3500 × g at room temperature for 10 sec . The supernatant in each well was transferred to the corresponding well of a black polystyrene flat -bottom 96-well plate (655086, Greiner bio-one). The solution was concentrated under a stream of Ar at 40 °C to give the eluted 2.
To the above eluted 2 in the plate was added n-BuOH (25 µL/well) at room temperature. The plate was vortexed at room temperature for 10 min. To the resultant solution was added a solution of NaBH4 in n-BuOH (1.0 mM, 25 µL/well). The plate was vortexed at room temperature for 10 min. The fluorescence of menahydroquinone (2H, Ex. 250 nm/Em. 430 nm) of each well was measured at room temperature every 3 min (0, 3, and 6 min) on Gemini EM microplate reader (Molecular Devices) . The three fluorescence intensities of each bead were averaged and plotted against the bead number.
Evaluation of menaquinone complexation activities of the selected bead-linked peptides. Bead-linked peptides 30, BLP1, and BLP2 were synthesized according to the above described procedures (loading rate:
0.222 mmol/g). The bead-linked peptides were subjected to the MK complexation assay described above.
The obtained fluorescent intensities of 2H (arbitrary unit) were 1026 ± 64 for 30, 396 ± 27 for BLP1, 72.9 ± 2.0 for BLP2, and 41.6 ± 0.1 for background adsorption (no bead), respectively (Supplementary Figure 3).

[2] = Liposomal membrane disruption assay (carboxyfluorescein LUVs); assay type: biochemical
Method: Preparation of LUVs consisting of PC/PG/MK-4 or PC/PG/UQ-10. To a solution of egg yolk phosphatidylcholine (9.48 mg, 12.4 µmol) and egg yolk phosphatidylglycerol (9.66 mg, 12.4 µmol) in CHCl3 (0.208 mL) was added a solution of MK-4 (2) or UQ-10 (3) (0.313 µmol) in CHCl3 (21.8 µL). The solution was concentrated, and dried under vacuum to for m a lipid thin film. The thin film was hydrated and suspended in carboxyfluorescein-containing buffer solution (0.500 mL, 5 mM HEPES, 20 mM carboxyfluorescein , pH 7.5) by vortexing and sonication. After five-times freeze-thaw cycles, the lipid suspension was extruded 19 times through a polycarbonate filter with 0.40 µm of pore siz e in the diameter.
The external carboxyfluorescein -containing buffer was replaced with a carboxyfluorescein -free buffer solution (20 mM HEPES, 1 mM EDTA, pH 7.5) through size exclusion chromatography using disposable PD -10 column. Concentration of egg yolk phosphatidylcholine was determined by using Phospholipid C -Test Wako.
The final concentration of egg yolk phosphatidylcholine was adjusted to 4.0 µM with the carboxyfluorescein -free buffer solution, and the solution was used for membrane disruption ass ay.
Membrane disruption assay. Peptides 1, A1–A22, B1–B5, and C1–C5 were diluted with MeOH/H2O (4/6) to various concentrations as 5-fold serial dilutions. The solution of peptides (2 µL/well) and the carboxyfluorescein-encapsulated LUV suspension (200 µL/well) were mixed in black polystyrene flat-bottom 96-well plates. The final concentration of peptides ranged from 2970 nM to 0.950 nM. The plates were vortexed at room temperature for 30 min, and then fluorescence of carboxyfluorescein (Ex. 490 nm/Em. 517 nm) of each well was measured at room temperature on Gemini EM microplate reader. Trion X-100/H2O (5/95, 2 µL), MeOH/H2O (4/6, 2 µL), and the LUV suspension were mixed in each plate to determine 100% lysis. MeOH/H2O (4/6, 2 µL) and the LUV suspension were mixed in each plate to determine 0% lysis.
The membrane disruption activities of tested peptides (I) were normalized against 100% lysis by Triton X -100 […]
(Imax) and 0% lysis by MeOH/H2O (4/6) (I0) as following, where Ix is the fluorescence intensity (Supplementary Equation 2).
I = 100 × (Ix – I0) / (Imax – I0) (2)
The membrane-disrupting activities were evaluated as half-maximal response (EC50, nM) values by means of three replicates. Sigmoidal curve fittings were performed on R2 with drc package (Supplementary Figs S7–S9).3 Two-parameter logistic model was applied for the fitting.

For `CC[C@H](C)[C@@H]1NC(=O)[C@@H](Cc2c[nH]c3ccccc23)NC(=O)[C@@H](Cc2ccc(O)cc2)NC(=O)[C@H](CCC(=O)O)NC(=O)[C@@H](CCCNC(=N)N)NC(=O)[C@H](CC(C)C)NC(=O)[C@@H](Cc2ccccc2)N(C)C(=O)CNC(=O)[C@H](CC(=O)O)NC(=O)[C@@H](CCCNC(=N)N)NC(=O)[C@@H](NC(=O)C[C@H](O)CC(C)C)[C@@H](C)OC(=O)[C@H]([C@@H](C)O)NC1=O` [Peptide A17] ({Hexanoyl(3R-OH,5-Me)}-T[dR]DG[dNMeF]L[dR]E[dY][dW]IT; ester 1-C), the “fluorescence intensity of 2H” value [1] was 1396.02 a.u, the EC50 ([2]; 30 min, room temperature, mean ± SD of three independent experiments, read-out: EC50 PC/PG/3) was over 1500 nM and the EC50 ([2]; PC/PG/3 LUVs, 1st experiment, read-out: EC50 PC/PG/3 1st) was over 1500 nM. The EC50 ([2]; PC/PG/3 LUVs, 2nd experiment, read-out: EC50 PC/PG/3 2nd) was over 1500 nM and the EC50 ([2]; PC/PG/3 LUVs, 3rd experiment, read-out: EC50 PC/PG/3 3rd) was over 1500 nM.
